{"source": "patent US20230310474A1", "about": "“CORONAVIRUS TREATMENT COMPOSITION AND METHOD” (Cleveland State University, priority 2022, published 2023)", "key": {"Neu1": {"biological_target": "T1, Neu1 (Homo sapiens, UniProt Q99519)", "T1 construct": "expressed in transfected cells; host or cells: HEK293T", "test": "Neuraminidase (sialidase) activity assay with 4-MU-NANA in HEK293T cells transfected with Neu1", "format": "cell-based"}, "THP-1 cells [1]": {"test_system": "THP-1 cells", "test": "Cytokine production in THP-1 cells (human cytokine bead array)", "format": "cell-based", "method": "Mouse blood samples were obtained at indicated time points, and cytokines in the serum were determined using a mouse cytokine bead array designed for inflammatory cytokines (552364, BD Biosciences, San Jose, CA). Human cytokines in cell culture derived supernatants were determined using a human cytokine bead array designed for inflammatory cytokines (551811, BD Biosciences).\n(§1) To determine whether Neu5Ac2en-OAcOMe affects post-entry steps of the viral life cycle, THP-1 cells were infected with HCoV-OC43 for two hours and then treated the cells with Neu5Ac2en-OAcOMe. Intracellular viral RNA and viral titers were quantified in the cell culture supernatants 72 hours post-infection."}, "HCoV-OC43 [2]": {"test_system": "HCoV-OC43"}, "THP-1 cells [3]": {"test_system": "THP-1 cells", "test": "MTS cell viability assay in THP-1 cells", "format": "cell-based, human", "conditions": "all tested concentrations", "method": "FIGS. 3A-J illustrate that Neu5Ac2en-OAcOMe exerts anti-viral effects in human cell models. […] (upper) or 37° C. (lower). Intracellular viral RNA was analyzed by RT-qPCR. FIGS. 3B-D show HCoV-OC43 (MOI = 2) infected THP-1 cells were treated with a gradient concentration of Neu5Ac2en-OAcOMe for 72 hours. Intracellular viral RNA (FIG. 3B, upper), extracellular progeny virus yields (FIG. 3B, lower and FIG. 3C) and intracellular nucleocapsid (FIG. 3D) were analyzed by RT-qPCR, TCID50 assay and immunoblot, respectively. The inhibitory and cytotoxic curves (3C) were obtained using the data from the lower panel in FIG. 3B and cell viability measured by MTS assay. CellTiter 96® AQueous One Solution Cell Proliferation Assay (MTS) (Promega, G3582) was performed as instructed in the kit manual. […] Sialylation was detected with biotin-MAA and biotin-SNA lectins. […] Nucleocapsid in the cell lysates was measured by western blot. […] The levels of intracellular nucleocapsid were analyzed by immunofluorescence (48 hours post-infection). […] ND, not detected. […]\nas §1"}, "HCoV-OC43 [4]": {"test_system": "HCoV-OC43", "test": "microbe, parasite or virus in culture", "format": "cell-based"}, "HCoV-OC43 [5]": {"test_system": "HCoV-OC43", "test": "HCoV-OC43 binding and entry assay in pretreated THP-1 cells (4° C. or 37° C.)", "format": "cell-based", "conditions": "THP-1 cells pretreated two hours; 4° C. one hour or 37° C. two hours post-infection", "method": "Whether Neu5Ac2en-OAcOMe acts on the virus binding and entry steps of the viral life cycle was evaluated. THP-1 cells were treated with Neu5Ac2en-OAcOMe for two hours and then infected the cells with HCoV-OC43 at 4° C. or 37° C. Cells incubated at 4° C. were collected one hour post-infection and cells incubated at 37° C. were collected two hours post-infection. Intracellular viral RNA was quantified by RT-qPCR."}, "SARS-CoV-2 [6]": {"test_system": "SARS-CoV-2", "format": "in vivo, K18-hACE2 transgenic mice", "conditions": "K18-hACE2 mice, IP on days 0-4, 1 x 10^4 PFU"}, "[7]": {"test": "Intracellular conversion of membrane-permeable inhibitor", "conditions": "upon entering into the cells"}, "SARS-CoV-2 [8]": {"test_system": "SARS-CoV-2", "test": "SARS-CoV-2 high-throughput screen (HTS) cytopathic effect assay in Vero 76 cells", "format": "cell-based", "conditions": "MOI 0.1, 48 hours"}, "HCoV-OC43 [9]": {"test_system": "HCoV-OC43", "test": "HCoV-OC43 replication in epithelial cell lines (HEK293T, HeLa, BSC-1)", "format": "cell-based", "method": "Cells were fixed with 4% paraformaldehyde in phosphate buffered saline (PBS) at room temperature for 15 min and then permeabilized with 1% Triton X-100 in PBS at room temperature for 15 min. Immunofluorescence staining was performed. Images were acquired with an EVOS FL Auto Imaging System (Thermo Fisher Scientific).\nNext, it was tested whether the observed efficacy of Neu5Ac2en-OAcOMe was not restricted to THP-1 cells. The efficacy of Neu5Ac2en-OAcOMe was evaluated in three epithelial cell lines (HEK293T cells, HeLa cells and BSC-1 cells). […] Therefore, cytosolic sialidase inhibitors represent a potential treatment for coronavirus infections."}, "human sialidases": {"test_system": "human sialidases", "conditions": "cited from earlier work"}, "SARS-CoV-2 [10]": {"test_system": "SARS-CoV-2", "conditions": "several clinical trials; cited from earlier work"}, "[11]": {"conditions": "HEK293T cells with Neu1 expression vector, 30 min at room temperature"}, "[12]": {"conditions": "HEK293T cells, HeLa cells and BSC-1 cells"}}, "data": [{"compound": "COC(=O)C1=CC(OC(C)=O)[C@@H](NC(C)=O)C([C@H](OC(C)=O)[C@@H](COC(C)=O)OC(C)=O)O1", "note": "(stereo partly drawn) [Neu5Ac2en-OAcOMe]", "values": [{"measurement": "cell surface sialidase activity", "setting": "Neu1; [11]", "value": "did not affect"}, {"measurement": "total sialidase activity (total cell lysate)", "setting": "Neu1; [11]", "value": "significantly decreased"}, {"measurement": "cytokine production", "setting": "THP-1 cells [1]", "value": "did not induce cytokine production"}, {"measurement": "body weight", "setting": "HCoV-OC43 [2]; after HCoV-OC43 infection, 20 mg/kg IP", "value": "significantly lower in vehicle-treated mice than in Neu5Ac2en-OAcOMe-treated mice"}, {"measurement": "brain and lung tissue damage (H&E staining)", "setting": "HCoV-OC43 [2]; day 5 post-infection", "value": "improved"}, {"measurement": "serum IL-6 level", "setting": "HCoV-OC43 [2]; day 5 post-infection", "value": "substantial decrease"}, {"measurement": "serum TNF-α level", "setting": "HCoV-OC43 [2]; day 5 post-infection", "value": "substantial decrease"}, {"measurement": "HCoV-OC43 viral replication in the lungs, blood and brain", "setting": "HCoV-OC43 [2]; day 5 post-infection, 20 mg/kg IP", "value": "suppression of HCoV-OC43 viral replication"}, {"measurement": "toxic signs and symptoms", "setting": "HCoV-OC43 [2]; in vivo, all treatment period", "value": "No toxic signs and symptoms were observed"}, {"measurement": "survival", "setting": "HCoV-OC43 [2]; seven-day-old C57BL/6 pups, 20 mg/kg IP, 10 days observation", "value": 50, "unit": "%"}, {"measurement": "toxicity in MTS assay", "setting": "THP-1 cells [3]", "value": "non-toxic at all tested concentrations"}, {"measurement": "N protein levels", "setting": "HCoV-OC43 [4]", "value": "significantly decreased"}, {"measurement": "antiviral activity against HCoV-OC43 (viral transcripts and viral titer)", "setting": "HCoV-OC43 [4]", "value": "showed the highest antiviral activities"}, {"measurement": "sialylation of HCoV-OC43 N protein", "setting": "HCoV-OC43 [4]", "value": "increased sialylation"}, {"measurement": "viral replication at the level of viral transcripts and viral titers", "setting": "HCoV-OC43 [4]", "value": "significantly decreased viral replication"}, {"measurement": "IC50", "setting": "HCoV-OC43 [4]; Betacoronavirus 1, OC43, THP-1, read-out: IC50 of viral replication (viral titers in cell culture supernatants)", "value": 13.7, "unit": "µM"}, {"measurement": "virus binding and entry steps (intracellular viral RNA)", "setting": "HCoV-OC43 [5]", "value": "did not affect virus binding and entry steps"}, {"measurement": "SARS-CoV-2-induced mortality", "setting": "SARS-CoV-2 [6]", "value": "significant protection"}, {"measurement": "body weight loss", "setting": "SARS-CoV-2 [6]", "value": "significant protection"}, {"measurement": "intracellular conversion", "setting": "[7]", "value": "readily converted to the corresponding Neu5Ac2en intracellularly"}, {"measurement": "protection activity (cell viability post SARS-CoV-2 infection)", "setting": "SARS-CoV-2 [8]", "value": "showed the highest protection activities"}, {"measurement": "viral replication by immunofluorescence staining for HCoV-OC43-N protein", "setting": "HCoV-OC43 [9]; BSC-1 cells, MOI 0.1, 48 hours post-infection", "value": "effectively suppressed viral replication"}, {"measurement": "N protein levels in epithelial cell lines", "setting": "HCoV-OC43 [9]; [12]", "value": "significantly decreased"}, {"measurement": "viral replication in epithelial cell lines", "setting": "HCoV-OC43 [9]; [12]", "value": "inhibited viral replication in all three cell lines"}]}, {"compound": "CC(=O)N[C@H]1[C@H]([C@H](O)[C@H](O)CO)OC(C(=O)O)=C[C@@H]1N=C(N)N", "note": "[zanamivir]", "values": [{"measurement": "effect on human sialidases", "setting": "human sialidases", "value": "almost no effect"}, {"measurement": "antiviral activity against HCoV-OC43 (viral transcripts and viral titer)", "setting": "HCoV-OC43 [4]", "value": "did not show inhibitory activity"}, {"measurement": "protection activity (cell viability post SARS-CoV-2 infection)", "setting": "SARS-CoV-2 [8]", "value": "did not show inhibitory activity"}]}, {"compound": "CC1(C)Cc2c(sc(NC(=S)NC(=O)c3ccccc3)c2C(=O)O)CO1", "note": "[CID-1067700, reference compound]", "values": [{"measurement": "HCoV-OC43 release", "setting": "HCoV-OC43 [4]", "value": "moderately inhibited"}]}, {"compound": "O=C(CO)N[C@H]1[C@H]([C@H](O)[C@H](O)CO)OC(C(=O)O)=C[C@@H]1O", "note": "[Neu5Gc2en, reference compound]", "values": [{"measurement": "cell surface sialidase activity", "setting": "Neu1; [11]", "value": "targets sialidase on cell surface"}, {"measurement": "antiviral activity against HCoV-OC43 (viral transcripts and viral titer)", "setting": "HCoV-OC43 [4]", "value": "did not inhibit HCoV-OC43 replication"}, {"measurement": "protection activity (cell viability post SARS-CoV-2 infection)", "setting": "SARS-CoV-2 [8]", "value": "could not protect"}]}, {"compound": "CCOC(=O)C1=C[C@@H](OC(CC)CC)[C@H](NC(C)=O)[C@@H](N)C1", "note": "[oseltamivir]", "values": [{"measurement": "sialidase activity in the cytoplasm", "setting": "Neu1", "value": "only slightly decreased"}, {"measurement": "effect on human sialidases", "setting": "human sialidases", "value": "almost no effect"}, {"measurement": "antiviral activity against HCoV-OC43 (viral transcripts and viral titer)", "setting": "HCoV-OC43 [4]", "value": "did not show inhibitory activity"}, {"measurement": "efficacy in treating SARS-CoV-2 infection", "setting": "SARS-CoV-2 [10]", "value": "no positive outcomes were observed"}, {"measurement": "protection activity (cell viability post SARS-CoV-2 infection)", "setting": "SARS-CoV-2 [8]", "value": "did not show inhibitory activity"}]}]}
